{"source": "patent US20260098054A1", "about": "“COMPOSITIONS AND METHODS FOR CONSTRUCTING CONJUGATES” (priority 2022, published 2026)", "key": {"[1]": {"tested_on": "U87-MG cells", "assay": "In vitro cytotoxicity assay (CCK-8) in U87-MG cells", "conditions": "U87-MG (high αvβ3 integrin), 48 h incubation, fold of free DM1 activity", "method": "(§1) Cells were plated in 96-well microplates at a density of 5×10^4 cells/well for 24 h for attachment, 90 μl of DMEM with 10% FBS and 100 U/mL P/Swas added to each well. PDCs 1-6 were first dissolved in DMSO respectively, at a concentration of 10 mM, followed by serial dilution in culture medium to achieve different concentrations as specified. For U87-MG cells, the concentration of compounds administered ranged from 1.37 to 27000 nM. While for HEK-293T cells, the concentration of compounds administered ranged from 0.03 to 1000 nM. The cells treated with the compounds were then incubated for 48 h. 10 μl of CCK-8 solution was then added to each well and incubated for 30 min. Absorbance was acquired at 450 nm using a spectrophotometer (Synergy HTX, Biotek). Three experiments were performed separately in triplicates and the data was processed using the GraphPad Prism (GraphPad Software, La Jolla, CA).\n(§2) Next, the biological activities of these conjugates were evaluated.\nThen, the in vitro antitumor efficacy of PDCs 1-6 was examined by CCK-8 assay (FIG. 5B). The IC50 of free DM1 and its conjugates were compared internally within the same cell line, to determine the potency of the six compounds."}, "[2]": {"tested_on": "HEK-293T cells", "assay": "In vitro cytotoxicity assay (CCK-8) in HEK-293T cells", "conditions": "for cytotoxicity in words (ranking among the six compounds): HEK-293T, CCK-8, PDCs 1-6", "method": "as §1, §2\nThe peptide-drug conjugates were tested on the negative control cell line."}, "[3]": {"assay": "Stability test of conjugates (checked by LCMS)", "type": "physicochemical", "conditions": "5% ACN in H2O or 5% ACN in PBS pH 7.4, 0.5 mM, room temperature or 37° C., LCMS after 24 h and 48 h", "method": "FIGS. 5A-5C are line graphs of stability test and biological evaluations of PDC 1-6. […] The compound was checked by LCMS after 24 h and 48 h."}, "[4]": {"biological_target": "αvβ3 integrin (Homo sapiens, UniProt P05106+P06756)", "sequence (P06756 31-1048)": "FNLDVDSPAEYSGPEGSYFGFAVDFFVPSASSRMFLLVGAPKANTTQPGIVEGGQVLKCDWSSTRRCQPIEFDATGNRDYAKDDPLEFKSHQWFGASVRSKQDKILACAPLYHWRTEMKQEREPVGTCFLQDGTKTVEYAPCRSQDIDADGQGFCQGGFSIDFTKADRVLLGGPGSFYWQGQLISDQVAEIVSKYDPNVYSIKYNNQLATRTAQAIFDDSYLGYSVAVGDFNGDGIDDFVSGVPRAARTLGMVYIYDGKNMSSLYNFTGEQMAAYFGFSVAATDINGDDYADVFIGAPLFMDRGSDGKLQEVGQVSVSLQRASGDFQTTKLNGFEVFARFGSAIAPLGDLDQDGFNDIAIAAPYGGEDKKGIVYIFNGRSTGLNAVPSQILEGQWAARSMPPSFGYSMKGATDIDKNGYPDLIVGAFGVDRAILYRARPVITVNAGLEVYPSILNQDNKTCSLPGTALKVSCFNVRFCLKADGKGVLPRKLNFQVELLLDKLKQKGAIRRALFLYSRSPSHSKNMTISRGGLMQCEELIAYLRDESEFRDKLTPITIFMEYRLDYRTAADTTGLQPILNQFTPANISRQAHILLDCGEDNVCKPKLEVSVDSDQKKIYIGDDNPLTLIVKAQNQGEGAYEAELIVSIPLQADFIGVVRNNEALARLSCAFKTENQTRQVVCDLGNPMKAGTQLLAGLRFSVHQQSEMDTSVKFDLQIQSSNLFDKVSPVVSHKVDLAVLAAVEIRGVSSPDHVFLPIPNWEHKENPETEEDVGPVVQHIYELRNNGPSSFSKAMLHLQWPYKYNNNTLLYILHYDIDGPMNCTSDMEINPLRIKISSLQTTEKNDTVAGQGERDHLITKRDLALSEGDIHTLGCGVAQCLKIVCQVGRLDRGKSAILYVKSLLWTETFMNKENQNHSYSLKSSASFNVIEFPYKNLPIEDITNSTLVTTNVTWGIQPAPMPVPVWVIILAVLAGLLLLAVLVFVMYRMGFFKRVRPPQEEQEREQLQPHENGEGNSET", "sequence (P05106 27-788)": "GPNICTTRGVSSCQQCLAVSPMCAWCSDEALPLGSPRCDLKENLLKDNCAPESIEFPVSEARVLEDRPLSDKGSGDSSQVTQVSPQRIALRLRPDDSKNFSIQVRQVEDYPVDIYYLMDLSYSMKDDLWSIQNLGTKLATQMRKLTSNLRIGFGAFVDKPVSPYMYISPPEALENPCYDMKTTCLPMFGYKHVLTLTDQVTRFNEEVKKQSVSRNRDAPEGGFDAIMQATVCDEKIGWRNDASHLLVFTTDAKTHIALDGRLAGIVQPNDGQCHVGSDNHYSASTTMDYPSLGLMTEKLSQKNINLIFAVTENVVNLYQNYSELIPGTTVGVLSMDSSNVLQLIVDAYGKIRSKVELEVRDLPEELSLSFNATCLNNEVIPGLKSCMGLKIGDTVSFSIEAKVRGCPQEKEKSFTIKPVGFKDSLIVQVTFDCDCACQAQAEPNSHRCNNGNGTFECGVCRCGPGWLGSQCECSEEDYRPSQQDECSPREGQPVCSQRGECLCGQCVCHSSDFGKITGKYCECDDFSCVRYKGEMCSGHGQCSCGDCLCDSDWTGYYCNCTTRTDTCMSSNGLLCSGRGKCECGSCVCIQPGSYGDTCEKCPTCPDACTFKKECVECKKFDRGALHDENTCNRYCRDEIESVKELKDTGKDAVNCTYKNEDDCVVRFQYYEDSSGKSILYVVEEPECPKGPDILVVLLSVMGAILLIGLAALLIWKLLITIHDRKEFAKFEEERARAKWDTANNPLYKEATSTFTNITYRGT", "conditions": "Kapp, et al., Sci. Rep. 2017; cited from earlier work"}, "[5]": {"biological_target": "integrin αvβ3 (UniProt P06756 31-1048; P05106 27-788)", "sequence (P06756 31-1048, chain 1 of 2)": "as the sequence (P06756 31-1048) above", "sequence (P05106 27-788, chain 2 of 2)": "as the sequence (P05106 27-788) above", "assay": "cell-based or functional assay"}}, "note": "Non-standard residues stand in square brackets, D forms with d. Pen = CC(C)(S)[C@H](N)C(=O)O"}
{"molecule": "COc1cc2cc(c1Cl)N(C)C(=O)C[C@H](OC(=O)[C@H](C)N(C)C(=O)CCSc1c3ccccc3cn1CCCC[C@@H]1NC(=O)[C@@H](Cc3ccccc3)NC(=O)[C@H](CC(=O)O)NC(=O)CNC(=O)[C@H](CCCNC(=N)N)NC1=O)[C@]1(C)O[C@H]1[C@H](C)[C@@H]1C[C@@](O)(NC(=O)O1)[C@H](OC)/C=C/C=C(\\C)C2", "note": "[PDC-1, OPA-c [RGDfK]-DM1]", "values": [{"measurement": "cytotoxicity compared to free DM1 (IC50 compared within the same cell line)", "setting": "[1]", "result": 0.85, "unit": "fold"}]}
{"molecule": "COc1cc2cc(c1Cl)N(C)C(=O)C[C@H](OC(=O)[C@H](C)N(C)C(=O)CCSSCCn1cc3ccccc3c1SC(C)(C)[C@@H]1NC(=O)[C@@H](Cc3ccccc3)NC(=O)[C@H](CC(=O)O)NC(=O)CNC(=O)[C@H](CCCNC(=N)N)NC1=O)[C@]1(C)O[C@H]1[C@H](C)[C@@H]1C[C@@](O)(NC(=O)O1)[C@H](OC)/C=C/C=C(\\C)C2", "note": "[PDC-3]", "values": [{"measurement": "cytotoxicity compared to free DM1 (IC50 compared within the same cell line)", "setting": "[1]", "result": 5.95, "unit": "fold"}, {"measurement": "cytotoxicity as fold of the activity of DM1", "setting": "[2]; HEK-293T (low αvβ3 integrin, negative control), 48 h incubation, CCK-8", "result": 0.31, "unit": "fold"}, {"measurement": "cytotoxicity in words (ranking among the six compounds)", "setting": "[2]", "result": "relatively better activity among the six compounds"}, {"measurement": "stability compared to PDC-1 (FIG. 5A)", "setting": "[3]", "result": "improved stability"}]}
{"molecule": "COc1cc2cc(c1Cl)N(C)C(=O)C[C@H](OC(=O)[C@H](C)N(C)C(=O)CCSc1c3ccccc3cn1CCCC[C@@H]1NC(=O)[C@@H](Cc3ccccc3)NC(=O)[C@H](CCC(=O)O)NC(=O)CNC(=O)[C@H](CCCNC(=N)N)NC1=O)[C@]1(C)O[C@H]1[C@H](C)[C@@H]1C[C@@](O)(NC(=O)O1)[C@H](OC)/C=C/C=C(\\C)C2", "note": "[PDC-5]", "values": [{"measurement": "cytotoxicity compared to free DM1 (IC50 compared within the same cell line)", "setting": "[1]", "result": 0.49, "unit": "fold"}]}
{"molecule": "COc1cc2cc(c1Cl)N(C)C(=O)C[C@H](OC(=O)[C@H](C)N(C)C(=O)CCSSCCn1cc3ccccc3c1SC(C)(C)[C@@H]1NC(=O)[C@@H](Cc3ccccc3)NC(=O)[C@H](CCC(=O)O)NC(=O)CNC(=O)[C@H](CCCNC(=N)N)NC1=O)[C@]1(C)O[C@H]1[C@H](C)[C@@H]1C[C@@](O)(NC(=O)O1)[C@H](OC)/C=C/C=C(\\C)C2", "note": "[PDC-6]", "values": [{"measurement": "cytotoxicity compared to free DM1 (IC50 compared within the same cell line)", "setting": "[1]", "result": 0.48, "unit": "fold"}, {"measurement": "cytotoxicity in words (ranking among the six compounds)", "setting": "[2]", "result": "relatively better activity among the six compounds"}]}
{"molecule": "c [c [RGDfK]]", "values": [{"measurement": "increase of binding affinity compared to the linear RGD tripeptide", "setting": "[4]", "result": 39, "unit": "fold"}]}
{"molecule": "c [c [RGDfV]]", "values": [{"measurement": "increase of binding affinity compared to the linear RGD tripeptide", "setting": "[4]", "result": 58, "unit": "fold"}]}
{"molecule": "cyclo(RGD[dF]K(Pen)) (not fully specified)", "note": "[PDC-4]", "values": [{"measurement": "cytotoxicity (CCK-8 assay) in U87-MG cells, fold against free DM1", "setting": "[5]", "result": 1.29, "unit": "fold"}, {"measurement": "cytotoxicity (CCK-8 assay) in the αvβ3-negative cell line HEK-293T, fold of the activity of DM1", "setting": "[5]", "result": 0.16, "unit": "fold"}]}
